Format in all cases: cell-based, rat
One test has as its system CAT. The experiment in a line: Catalase (CAT) activity assay in treated cells. Conditions: for attenuation of CAT activity: 48 h. As to the method: FIG. 4. […] Enzyme activity was normalized against total protein. DBZIM was dissolved in DMSO, and TDBZIM was dissolved in H2O. The data were presented as mean and SEM, N=6, *^aP<0.05, *^bP<0.01, *^cP<0.005, and *^dP<0.0005, when compared to the vehicle control.
Activity levels of three anti-oxidant enzymes, GPx, CAT and SOD, were determined using assay kits from Cayman Chemical. To assay GPx and CAT activities, protein samples were harvested in ice-cold PBS containing 1 mM of EDTA. […] Protein content was determined by BCA assay.
CAT activity was determined based on reaction of the enzyme with methanol in the presence of H2O2. The formaldehyde produced was measured spectrophotometrically at 540 nm using Purpald as the chromogen. CAT activity was expressed as nmol/min/mg protein.

The next test concerns GPx. The experiment in a line: Glutathione peroxidase (GPx) activity assay in treated cells. The protocol:
(§1) FIG. 4. Effect of DBZIM and TDBZIM on GPx, CAT, SOD and GST. DBZIM affected (a) GPx activity and (c) CAT activity in a dosage-dependent manner. TDBZIM suppressed (b) GPx activity and (d) CAT activity. (e) DBZIM and (f) TDBZIM had little effect on SOD activity. (g) DBZIM induced GST activity. HSC T6 cells were treated with compounds of various concentrations for 48 h, and homogenized by sonication (60% frequency for 30 s) in PBS (pH 7.4, 1 mM of EDTA) for GPx, GST and CAT assays, or in 20 mM of HEPES buffer containing 1 mM of EGTA, 210 mM of mannitol and 70 mM of sucrose (pH 7.2) for SOD assay. Enzyme activity was normalized against total protein. DBZIM was dissolved in DMSO, and TDBZIM was dissolved in H2O. The data were presented as mean and SEM, N=6, *^aP<0.05, *^bP<0.01, *^cP<0.005, and *^dP<0.0005, when compared to the vehicle control.
(§2) Activity levels of three anti-oxidant enzymes, GPx, CAT and SOD, were determined using assay kits from Cayman Chemical. To assay GPx and CAT activities, protein samples were harvested in ice-cold PBS containing 1 mM of EDTA. To assay SOD activity, protein samples were prepared in 20 mM of N-(2-hydroxyethyl)-piperazine-N′-2-ethanesulfonic acid (HEPES) buffer containing 1 mM of ethylene glycol-bis(2-aminoethylether)-N,N,N′,N′-tetraacetic acid (EGTA), 210 mM of mannitol and 70 mM of sucrose. Protein content was determined by BCA assay.
GPx activity was indirectly measured by a coupled reaction with GSH reductase. Oxidized GSH, produced upon reduction of H2O2 by GPx, is recycled to its reduced state by glutathione reductase (GR) and nicotinamide adenine dinucleotide phosphate (NADPH). The oxidation of NAPDH is proportional to the GPx activity, and can be measured as a decrease in absorbance at 340 nm. GPx activity was expressed as nmol/min/mg protein.

A further test concerns HSC T6 cells. The experiment in a line: MTS based proliferation assay (cytotoxicity) on cultured HSC-T6 cells. Conditions: for IC50: read-out: IC50 (toxicity on T6 cells); for inhibition of cell proliferation: 48 h, 10% FBS DMEM. The protocol:
FIG. 1. Cytotoxicity of (a) DBZIM and (b) TDBZIM. […] The signal was normalized against a vehicle control treatment (0 μM of compound). The data were obtained from four independent experiments, and presented as mean and standard error or mean (SEM), *^aP<0.05, *^bP<0.01 and *^cP<0.005.
Firstly we assessed the cytotoxicity of DBZIM and TDBZIM on cultured HSC-T6 cells using a 3-(4,5-dimethylthiazol-2-yl)-5-(3-carboxymethoxyphenyl)-2-(4-sulfophenyl)-2H-tetrazolium (MTS) based proliferation assay kit (Promega, Wis., USA). […]
A general note: Tetrazolium dyes change colour on reduction, which living cells bring about.

The test system of another test is SOD. The experiment in a line: Superoxide dismutase (SOD) activity assay in treated cells. Conditions: HSC T6 cells, 48 h. As to the method:
as §1, §2
Total SOD, including all three types of SOD (Cu/Zn-, Mn- and Fe-SOD), was quantified using a tetrazolium salt to detect superoxide radicals generated by xanthine oxidase and hyposanthine. […] SOD activity was expressed as U/mg protein.

The next test has as its system HSC-T6 cells. Put plainly: Glutathione (GSH) and GSSG assays. To be noted: 48 h. The protocol:
FIG. 3. […] (c) DBZIM and (d) TDBZIM both suppressed cellular GSSG (the oxidation product of GSH). (e) DBZIM and (f) TDBZIM both enhanced the GSH/GSSG ratio. HSC-T6 cells were incubated with compounds of various concentrations for 48 h, and assayed for the total GSH and GSSG amounts. The GSH/GSSG ratio was calculated as (GSH−GSSG)/GSSG. The GSH and GSSG amounts were normalized against the total protein. Note that DBZIM was dissolved in DMSO, and TDBZIM was dissolved in H2O. The data were presented as mean and SEM, N=6, *^aP<0.05, *^bP<0.01, *^cP<0.005, and *^dP<0.0005, when compared to the vehicle control.
Total cellular GSH and GSSG levels were determined by using assay kits from Cayman Chemical (Ann Arbor, Mich., USA) following the manufacturer's instructions. Briefly, HSC-T6 cells treated with DBZIM, TDBZIM, NAC, or EGCG were scalped and homogenized in phosphate buffered saline (PBS) by sonication at 60% frequency for 30 s, and the supernatant was collected after centrifugation at 16,000×g for 10 min at 4° C. Protein content of the samples was determined by bicinchonicic acid (BCA) assay.
For GSH assays, the protein sample was deproteinated by metaphosphoric acid (Aldrich, Catalog No. 23927-5), and the pH was adjusted by triethanolamine (Aldrich, Catalog No. T5830-0) according to the manual. The sample was ready for assaying total GSH including both the reduced and oxidized forms. Quantification of GSSG, exclusive of GSH, was performed by first derivatizing GSH with 2-vinylpyridine and assaying separately. Colorimetric signal was recorded at 405 nm with a Tecan Safire II plate reader. The levels of GSH or GSSG were determined as nmol/μg protein.

Where [1] appears, read: Rattus norvegicus, HSC-T6, HSC T6 cells.
Where [2] appears, read: 300 μM, without statistical significance.

Where two headings read alike, the source gives them in different places.

With “1,3,5-tris(4-methyl-imidazolium)-linked cyclophane.3Br [TDBZIM]”, the “attenuation of CAT activity” value came to 25% with CAT (10 μM), 31% in the test with CAT (50 μM) and 20% with CAT (100 μM). For the same compound, the “attenuation of GPx activity” value in the test with GPx (10 μM, 48 h) was determined as 18%; in the test with GPx (50 μM, 48 h), 25%; in the test with GPx (100 μM, 48 h), 34%. Moreover, the IC50 – broadly, the midpoint of a concentration-inhibition curve – with HSC T6 cells (HSC T6 cells) is ~500 µM. The “inhibition of cell proliferation” value with HSC T6 cells (TDBZIM 125-200 μM) is given as 13-19%. Also, in the test with SOD, the “effect on SOD activity” value is “did not show much effect”. Further, the figures for the “depletion of GSSG” value in the test on HSC-T6 cells (10 μM), with HSC-T6 cells (50 μM) and in the test with HSC-T6 cells (100 μM) were 12%, 35% and 50%, respectively. The “enhancement of GSH/GSSG ratio” value is 14% in the test on HSC-T6 cells (10 μM), 65% in the test on HSC-T6 cells (50 μM) and 106% in the test with HSC-T6 cells (100 μM). Also, the “effect on total cellular GSH level” value with HSC-T6 cells (10-100 μM) is reported as “did not alter”.

Take “(−)-Epigallocatechin gallate [EGCG, reference compound]”: the “suppression of CAT activity (references)” value in the test on CAT (EGCG, NAC (FIG. 4c)) is on record as 13%. Moreover, in the test with GPx (EGCG 25 μM, NAC 5 mM), the “attenuation of GPx activity (references)” value turned out to be 53%. The “effect on SOD activity” value in the test with SOD was “did not show much effect”. Further, in the test with HSC-T6 cells (EGCG 25 μM, NAC 5 mM), the “reduction of GSSG (references)” value was 42%. For the same compound, in the test with HSC-T6 cells (NAC 5 mM, EGCG 25 μM), the “increase in GSH/GSSG ratio (references)” value was found to be 2 fold and the “induction of total GSH (references)” value is 19%.

With `CC(C)n1cc[n+](C(C)C)c1.F[B-](F)(F)F` [DPIM, 1,3-diisopropylimidazolium tetrafluoroborate], the IC50 with HSC T6 cells (setting [1]) was determined as 3100 µM.

Regarding `[Br-].c1ccc(Cn2cc[n+](Cc3ccccc3)c2)cc1` [DBZIM, 1,3-bisbenzylimidazolium bromide], the “attenuation of CAT activity” value is 19% in the test on CAT (10 μM), 16% with CAT (50 μM), 12% in the test on CAT (100 μM) and 8% in the test with CAT (setting [2]). The “attenuation of GPx activity” value is given as 10% in the test on GPx (10 μM, 48 h) and 10% in the test on GPx (50 μM, 48 h). The “enhancement of GPx activity” value in the test on GPx (300 μM, 48 h) amounted to 15%. The “inhibition of cell proliferation” value in the test on HSC T6 cells (DBZIM 250-400 μM) is reported as 3.5-8.9%. Also, in the test with HSC T6 cells (setting [1]), the IC50 was determined as 1700 µM. For the same compound, the “effect on SOD activity” value in the test with SOD is on record as “did not show much effect”. Further, the “attenuation of total GSH level” value with HSC-T6 cells (10 μM) worked out at 7%; in the test on HSC-T6 cells (50 μM), 12%; in the test with HSC-T6 cells (100 μM), 20%. In addition, the “depletion of GSSG” value in the test with HSC-T6 cells (10 μM) was found to be 13%; in the test with HSC-T6 cells (50 μM), 23%; in the test with HSC-T6 cells (300 μM), 85%; with HSC-T6 cells (1001 μM), 35%. Besides, the “enhancement of GSH/GSSG ratio” value in the test on HSC-T6 cells (10 μM) was 8%; in the test with HSC-T6 cells (50 μM), 15%; in the test on HSC-T6 cells (100 μM), 23%. Besides, the “GSH/GSSG ratio relative to control group” value in the test on HSC-T6 cells (300 μM) amounted to 7.4 fold. Besides, the “enhancement of total GSH level” value in the test on HSC-T6 cells (setting [2]) was found to be 8%.

For the origin of these results see US9072729B2, “Method for treating fibrosis and cancer with imidazolium and imidazolinium compounds” (Agency for Science, Technology and Research, priority 2008, dated 2015).
